From patent publication US20260226067A1, “MODULATORS OF TRPML, THEIR COMPOSITIONS AND METHODS OF USE” (Caraway Therapuetics, Inc., priority 2023, published 2026) come the findings set out here.

Format in all cases: cell-based
One assay has as its target T1, Human TRPML3 (Homo sapiens, UniProt Q8TDD5).
T1 construct: expressed in transfected cells
T1 sequence (Q8TDD5 1-553): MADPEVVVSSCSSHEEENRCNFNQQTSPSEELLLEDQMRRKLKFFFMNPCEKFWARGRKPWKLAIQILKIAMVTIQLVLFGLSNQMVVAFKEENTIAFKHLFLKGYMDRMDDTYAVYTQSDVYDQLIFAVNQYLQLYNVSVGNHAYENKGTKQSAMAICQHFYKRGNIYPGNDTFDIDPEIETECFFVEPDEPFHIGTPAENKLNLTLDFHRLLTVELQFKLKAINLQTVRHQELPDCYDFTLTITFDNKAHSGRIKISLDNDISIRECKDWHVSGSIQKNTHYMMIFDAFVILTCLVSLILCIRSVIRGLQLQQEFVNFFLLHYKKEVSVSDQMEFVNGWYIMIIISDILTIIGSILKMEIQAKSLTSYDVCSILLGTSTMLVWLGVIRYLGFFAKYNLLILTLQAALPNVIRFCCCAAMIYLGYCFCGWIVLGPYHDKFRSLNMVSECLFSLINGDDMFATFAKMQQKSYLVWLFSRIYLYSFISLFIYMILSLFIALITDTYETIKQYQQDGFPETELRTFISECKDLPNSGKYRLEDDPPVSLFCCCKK
In words: Fluorescent TRPML3 assay (as for TRPML1). Particulars: as TRPML1 assay with TRPML3 subtype; read-out: Human TRPML 3 EC50. As for the experimental part: (§1) HEK-293 Trex cells were stably transfected with a construct consisting of the human coding sequence for TRPML1 cloned into the tet-inducible plasmid pCDNA5 T/O. Mutations were introduced into the TRPML1 sequence to facilitate expression on the cell surface (Silvia Vergarajauregui, Rosa Puertollano Traffic. 2006 March; 7(3): 337-353). Briefly, the cells are cultured in 150 mm round tissue culture dishes containing 20 mL of media. The day before the assay the cells are rinsed with DPBS-Ca-Mg and then treated briefly with Trypsin-EDTA. The Trypsin-EDTA is diluted with growth media, and cells are counted. 38×10^6 cells are re-plated into 150 mm round tissue culture dishes in media containing 0.5 ug/mL doxycycline to induce expression of hTRPML1.
(§2) The day of the experiment cells are lifted from the plates as above and collected by centrifugation. The cells are then suspended in dye loading buffer consisting of Ringer's solution supplemented with 0.1% Pluronic Acid and 1 micromolar Fluo4-AM dye. Cells are loaded for ~60 minutes in the dark with occasional mixing. The cells are collected by centrifugation, the loading media aspirated, and the cells resuspended in 25 mL Ringer's solution and incubated ~60 minutes in the dark. The cells are again collected by centrifugation, rinsed in Ringer's Solution and resuspended to 0.2×10^6 cells/mL in modified Ringer's solution containing 10 mM calcium.
(§3) Compounds are dissolved to a concentration of 10 millimolar with DMSO. Compound plates are created by dispensing compounds into 384 well black wall clear bottom plates (Greiner 781091). Positive and negative controls are included on each plate. Typically, different amounts of each compound are tested ranging from 100 nanoMoles (20 micromolar final concentration) decreasing in half-log steps to 31 picoMoles (6 nanomolar final concentration). Each concentration is typically tested in triplicate.
(§4) 50 microliters of dye-loaded cells are dispensed into each well of the compound assay plate created above. The fluorescence in each well is then determined with an excitation wavelength of 480 nm and an emission wavelength of 540 nm using either a Molecular Devices SpectraMax multimode plate reader or a Hamamatsu FDSS/uCell plate imager.
(§5) The resulting fluorescence for each well is exported as an ascii file and loaded into our LIMS for analysis. The percent activity of each compound at each concentration is determined by comparison to the positive and negative control wells included in each plate.
(§6) Assays for TRPML2 and TRPML3 were performed as above for TRPML1, by substituting the appropriate TRPML2 or TRPML3 subtype for the TRPML1.
(§7) EC50 values were calculated using a non-linear regression of Prism. In the table, “A” indicates an EC50 of less than 100 nM, “B” indicates an EC50 range from 100 nM to 500 nM; “C” indicates an EC50 range from 500 nM to 2 μM; and “D” indicates an EC50 greater than 2 μM.

For another assay, the target named is human TRPML1 (Homo sapiens, UniProt Q9GZU1). In words: Fluorescent TRPML1 assay (Fluo4-AM calcium fluorescence). As to conditions: HEK-293 Trex cells expressing hTRPML1, Fluo4-AM fluorescence; read-out: Human TRPML 1 EC50. As for the experimental part:
as §1, §2, §3, §4, §5, §7

In a further assay the target is T2, Human TRPML2 (Homo sapiens, UniProt Q8IZK6).
T2 construct: expressed in transfected cells
T2 sequence (Q8IZK6 1-566): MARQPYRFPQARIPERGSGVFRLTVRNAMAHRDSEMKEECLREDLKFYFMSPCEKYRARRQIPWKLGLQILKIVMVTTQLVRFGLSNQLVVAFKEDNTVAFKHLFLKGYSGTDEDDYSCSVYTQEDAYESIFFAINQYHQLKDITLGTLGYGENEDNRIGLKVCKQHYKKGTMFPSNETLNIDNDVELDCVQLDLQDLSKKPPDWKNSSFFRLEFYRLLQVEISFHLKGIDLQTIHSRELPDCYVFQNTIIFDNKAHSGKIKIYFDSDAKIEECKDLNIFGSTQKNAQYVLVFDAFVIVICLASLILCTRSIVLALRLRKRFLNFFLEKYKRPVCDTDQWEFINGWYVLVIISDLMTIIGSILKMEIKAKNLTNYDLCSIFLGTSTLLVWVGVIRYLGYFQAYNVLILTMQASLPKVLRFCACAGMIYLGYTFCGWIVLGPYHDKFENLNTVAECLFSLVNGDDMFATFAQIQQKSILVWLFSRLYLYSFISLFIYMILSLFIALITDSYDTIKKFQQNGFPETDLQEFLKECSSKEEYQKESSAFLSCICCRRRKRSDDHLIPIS
The experiment in a line: Fluorescent TRPML2 assay (as for TRPML1). As to conditions: as TRPML1 assay with TRPML2 subtype; read-out: Human TRPML 2 EC50. The method, then:
as §1, §2, §3, §4, §5, §6, §7

Each structure is given as a SMILES string. pEC50: −log10 of the molar value.

human TRPML1, sequence (Q9GZU1 whole entry L15A/L16A/L577A/L578A, form open): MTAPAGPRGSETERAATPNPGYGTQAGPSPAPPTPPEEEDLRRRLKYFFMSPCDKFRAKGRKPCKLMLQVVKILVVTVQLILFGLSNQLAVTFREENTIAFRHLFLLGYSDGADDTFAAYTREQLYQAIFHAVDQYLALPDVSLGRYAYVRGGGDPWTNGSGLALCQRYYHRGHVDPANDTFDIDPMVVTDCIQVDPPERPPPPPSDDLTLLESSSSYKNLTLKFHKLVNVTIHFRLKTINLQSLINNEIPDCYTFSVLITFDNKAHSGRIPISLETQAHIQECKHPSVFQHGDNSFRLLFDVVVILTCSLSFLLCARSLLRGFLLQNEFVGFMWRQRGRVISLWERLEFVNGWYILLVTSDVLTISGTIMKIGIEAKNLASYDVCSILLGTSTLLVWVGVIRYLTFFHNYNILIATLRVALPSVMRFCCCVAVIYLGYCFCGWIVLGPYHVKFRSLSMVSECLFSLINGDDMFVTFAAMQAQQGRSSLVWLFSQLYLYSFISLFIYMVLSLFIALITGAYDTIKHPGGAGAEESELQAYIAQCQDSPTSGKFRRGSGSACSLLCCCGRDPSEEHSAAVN

As usually defined, the pEC50 is −log10 of the EC50, conventionally taken in molar units. In the case of `C[C@@H]1CN(c2ncnc3c2c(N2CCC2)cn3-c2cc(C#N)ccn2)CCN1C(=O)c1ccccc1` [Compound 101, (R)-2-(5-(azetidin-1-yl)-4-(4-benzoyl-3-methylpiperazin-1-yl)-7H-pyrrolo[2,3-d]pyrimidin-7-yl)isonicotinonitrile], the values for the pEC50 on Human TRPML3, on human TRPML1 and at Human TRPML2 were greater than 7.00, greater than 7.00 and 6.30 to 7.00, respectively.
As for `COc1ccccc1C(=O)N1C[C@H](C)N(c2ncnc3c2c(-c2ccccc2F)cn3-c2cc(C#N)ccn2)C[C@H]1C` [Compound 119, 2-(5-(2-fluorophenyl)-4-((2S,5R)-4-(2-methoxybenzoyl)-2,5-dimethylpiperazin-1-yl)-7H-pyrrolo[2,3-d]pyrimidin-7-yl)isonicotinonitrile], the pEC50 on Human TRPML3 is greater than 7.00; on human TRPML1, greater than 7.00; on Human TRPML2 it was 6.30 to 7.00.
As for `C[C@@H]1CN(c2ncnc3c2c(N2CCC2)cn3-c2cc(C#N)ccn2)[C@@H](C)CN1C(=O)c1cccc(F)c1` [Compound 114, 2-(5-(azetidin-1-yl)-4-((2S,5R)-4-(3-fluorobenzoyl)-2,5-dimethylpiperazin-1-yl)-7H-pyrrolo[2,3-d]pyrimidin-7-yl)isonicotinonitrile], the pEC50 at Human TRPML3, at human TRPML1 and at Human TRPML2 was 6.30 to 7.00 each time.
Turning to `C[C@H]1CN(C(=O)c2ccccc2)CCN1c1ncnc2c1c(-c1ccccc1F)cn2-c1cc(C#N)ccn1` [Compound 122, (S)-2-(4-(4-benzoyl-2-methylpiperazin-1-yl)-5-(2-fluorophenyl)-7H-pyrrolo[2,3-d]pyrimidin-7-yl)isonicotinonitrile], the figures for the pEC50 at Human TRPML3, at human TRPML1 and on Human TRPML2 were 6.30 to 7.00, greater than 7.00 and 5.70 to 6.30, respectively.
For `C[C@@H]1CN(c2ncnc3c2c(C2CC2)cn3-c2cc(C#N)ccn2)[C@@H](C)CN1C(=O)c1ccccc1` [Compound 102, 2-(4-((2S,5R)-4-benzoyl-2,5-dimethylpiperazin-1-yl)-5-cyclopropyl-7H-pyrrolo[2,3-d]pyrimidin-7-yl)isonicotinonitrile] the same measures were 6.30 to 7.00, greater than 7.00 and less than 5.70.
For `C[C@@H]1CN(c2ncnc3c2c(N2CCC2)cn3-c2cc(C#N)ccn2)[C@@H](C)CN1C(=O)c1ccccc1F` [Compound 113, 2-(5-(azetidin-1-yl)-4-((2S,5R)-4-(2-fluorobenzoyl)-2,5-dimethylpiperazin-1-yl)-7H-pyrrolo[2,3-d]pyrimidin-7-yl)isonicotinonitrile] the same measures were 5.70 to 6.30, 6.30 to 7.00 and 6.30 to 7.00.
For the compound `C[C@@H]1CN(c2ncnc3c2c(-c2ccccc2)cn3-c2cc(C#N)ccn2)[C@@H](C)CN1C(=O)c1ccccc1` [Compound 116, 2-(4-((2S,5R)-4-benzoyl-2,5-dimethylpiperazin-1-yl)-5-phenyl-7H-pyrrolo[2,3-d]pyrimidin-7-yl)isonicotinonitrile], the pEC50 is 6.30 to 7.00 at Human TRPML3, greater than 7.00 on human TRPML1 and 5.70 to 6.30 at Human TRPML2.
The matching figures for `C[C@@H]1CN(c2ncnc3c2c(-c2ccccc2F)cn3-c2cc(C#N)ccn2)[C@@H](C)CN1C(=O)c1ccccc1N(C)C` [Compound 121, 2-(4-((2S,5R)-4-(2-(dimethylamino)benzoyl)-2,5-dimethylpiperazin-1-yl)-5-(2-fluorophenyl)-7H-pyrrolo[2,3-d]pyrimidin-7-yl)isonicotinonitrile]: greater than 7.00, greater than 7.00 and 6.30 to 7.00.
In the case of `C[C@@H]1CN(c2ncnc3c2c(C(F)(F)F)cn3-c2cc(C#N)ccn2)CCN1C(=O)c1ccccc1` [Compound 115, (R)-2-(4-(4-benzoyl-3-methylpiperazin-1-yl)-5-(trifluoromethyl)-7H-pyrrolo[2,3-d]pyrimidin-7-yl)isonicotinonitrile], the pEC50 on Human TRPML3 was greater than 7.00.
The same measure, in the same setting: to `C[C@H]1CN(C(=O)c2ccccc2)CCN1c1ncnc2c1c(C(F)(F)F)cn2-c1cc(C#N)ccn1` [Compound 117, (S)-2-(4-(4-benzoyl-2-methylpiperazin-1-yl)-5-(trifluoromethyl)-7H-pyrrolo[2,3-d]pyrimidin-7-yl)isonicotinonitrile] belongs 5.70 to 6.30.
Take `C[C@@H]1CN(c2ncnc3c2c(C(F)(F)F)cn3-c2cc(C#N)ccn2)[C@@H](C)CN1C(=O)c1ccccc1` [Compound 103, 2-(4-((2S,5R)-4-benzoyl-2,5-dimethylpiperazin-1-yl)-5-(trifluoromethyl)-7H-pyrrolo[2,3-d]pyrimidin-7-yl)isonicotinonitrile]: the figures for the pEC50 at Human TRPML3 and at Human TRPML2 were greater than 7.00 and 5.70 to 6.30, respectively.
For the compound `Cc1ccccc1C(=O)N1C[C@H](C)N(c2ncnc3c2c(N2CCC2)cn3-c2cc(C#N)ccn2)C[C@H]1C` [Compound 112, 2-(5-(azetidin-1-yl)-4-((2S,5R)-2,5-dimethyl-4-(2-methylbenzoyl)piperazin-1-yl)-7H-pyrrolo[2,3-d]pyrimidin-7-yl)isonicotinonitrile], the pEC50 is 6.30 to 7.00 at Human TRPML3, 6.30 to 7.00 at human TRPML1 and 5.70 to 6.30 at Human TRPML2.
For `C[C@@H]1CN(c2ncnc3c2c(C2CCC2)cn3-c2cccc(F)c2)[C@@H](C)CN1C(=O)c1ccccc1` [Compound 111, ((2R,5S)-4-(5-cyclobutyl-7-(3-fluorophenyl)-7H-pyrrolo[2,3-d]pyrimidin-4-yl)-2,5-dimethylpiperazin-1-yl)(phenyl)methanone], the pEC50 is 5.70 to 6.30 on Human TRPML3 and 6.30 to 7.00 on human TRPML1.
`Cc1cn(-c2cc(C#N)ccn2)c2ncnc(N3C[C@@H](C)N(C(=O)c4ccccc4)C[C@@H]3C)c12` [Compound 104, 2-(4-((2S,5R)-4-benzoyl-2,5-dimethylpiperazin-1-yl)-5-methyl-7H-pyrrolo[2,3-d]pyrimidin-7-yl)isonicotinonitrile]: the pEC50 at Human TRPML3 was 6.30 to 7.00.
For `C[C@@H]1CN(c2ncnc3c2c(-c2ccccn2)cn3-c2cc(C#N)ccn2)[C@@H](C)CN1C(=O)c1ccccc1` [Compound 118, 2-(4-((2S,5R)-4-benzoyl-2,5-dimethylpiperazin-1-yl)-5-(pyridin-2-yl)-7H-pyrrolo[2,3-d]pyrimidin-7-yl)isonicotinonitrile], the figures for the pEC50 at Human TRPML3 and at human TRPML1 were 5.70 to 6.30 and 6.30 to 7.00, respectively.
